# Literature values as cited in patent publication US20160184299A1, “COMBINATION COMPOSITION COMPRISING OXYCODONE AND ACETAMINOPHEN FOR RAPID ONSET AND EXTENDED DURATION OF ANALGESIA” (MALLINCKRODT LLC, priority 2011, published 2016).
# Test system: hepatic GSH
# Details: mice, cited from earlier work
compound,measurement,setting,value
CC(=O)Nc1ccc(O)cc1 [acetaminophen],Time to onset of circulating hepatic GSH changes after administration,100 mg/kg to 600 mg/kg,≤ 15 min
same,Time of minimum GSH level after injection,all dose groups,2 h
